{
  "source": "patent US20120171123A1",
  "about": "“USES AND COMPOSITIONS FOR TREATMENT OF RHEUMATOID ARTHRITIS” (priority 2006, published 2012)",
  "key": {"[1]": {"tested_on": "patients with moderate to severe rheumatoid arthritis", "test": "Study C: DAS28", "type": "in vivo, human", "procedure": "The Canadian Adalimumab Clinical Trial (Study C) was an open-label, multi-center, Phase IIIb study conducted in Canada. […] Efficacy and safety were assessed at baseline, 4, 8, and 12 weeks. Efficacy assessments included tender joint count (TJC 0-28), swollen joint count (SJC 0-28), Disease Activity Score 28 (DAS28), Health Assessment Questionnaire (HAQ), and EULAR response. This was a preliminary analysis of 236 patients. The sample size for each outcome variable is based on the data available at the time of the analysis. The data from this preliminary analysis were compared with the Week 12 data from Study A (N=2008)."}, "[2]": {"tested_on": "patients with severe RA who had failed at least one DMARD", "test": "Study 2 / Study 3 OLE (adalimumab 40 mg eow monotherapy): HUI3 health utility", "type": "in vivo, human", "settings": "for mean HUI3 change from baseline: week 26 (6 months), monotherapy", "procedure": "In addition to the SF-36 instrument, the Health Utilities Index Mark 3 (HUI3) and the Functional Assessment of Chronic Illness Therapy-Fatigue (FACIT-F) questionnaires were administered at baseline, 12 weeks, and the end of the study.\nThe HUI3 scale is 0-1, with “1” denoting perfect health and “0” denoting death. FACIT-F scores range from 0-52, with higher scores representing less fatigue. The SF-36 includes one multi-item scale that assesses eight different dimensions of health, including physical and psychosocial components. For each dimension a value of 0-100 is given, with higher numbers representing less impairment. Changes in HUI3 of ≧0.03, in FACIT-F of ≧4 and in SF-36 of ≧4.4 (physical subscales) and ≧3.1 (mental subscales) are considered clinically meaningful.\nThe HUI3 was assessed at baseline, and at several time points during the study. Health Utility Index 3 (scale=0-1) measures preference of a health state, with “1” denoting perfect health and “0” denoting death. HUI3 changes of ≧0.03 are considered clinically important. The HUI3 classification system consists of 8 attributes and 5 or 6 levels on each attribute, ranging from full function to severe impairment.\nInclusion criteria for this study included: all patients had severe active disease; and all patients had failed prior DMARD(s).\nThe Health Utilities Index Mark 3 (HUI3) was assessed at three time points. HUI 3 consists of 8 attributes: vision, hearing, speech, ambulation, dexterity, emotion, cognition, and pain. HUI3 score changes of ≧0.03 are considered clinically important. […] As can also be seen in this figure, the Study 2 study population started with baseline values reflecting a patient population with a more severe disease activity than in Study I, as documented by TJC, SJC, HAQ, CRP, and number of previous DMARDs.\nIn addition to clinical parameters, the SF-36 instrument, the Health Utilities Index Mark 3 (HUI3), and the Functional Assessment of Chronic Illness Therapy-Fatigue (FACIT-F) questionnaires were administered at baseline, and at weeks 12, 26, 50, 74, 98, 122, 146 and 170, respectively. The HUI3 scale ranges from 0-1, with “1” denoting perfect health and “0” denoting death. FACIT-F scores range from 0-52, with higher scores representing less fatigue. SF-36 scores range from 0-100 with higher scores indicating improvement in HRQoL. Changes in HUI3 scores of ≧0.03, 1 FACIT-F scores of ≧4, 2 and individual SF-36 domain scores of 5-103 are considered clinically meaningful."}, "[3]": {"tested_on": "patients with RA who had failed prior treatment with infliximab", "test": "Adalimumab after failed infliximab (16-week study): DAS28", "type": "in vivo, human", "settings": "for Change in DAS28, mean change from baseline: 16 wk", "description": "(§1) Patients eligible to participate in the study included those with long-standing, moderate to severe RA who had terminated infliximab therapy because of lack or loss of efficacy and/or intolerance/side effects. […] Follow-up visits for safety and efficacy monitoring were scheduled at 2, 8, and 16 weeks. […] Efficacy parameters included TJC28 and SJC28; DAS28; ACR20, ACR50 Response; Moderate EULAR response; and HAQ. Subgroup analysis by reason for discontinuation included: • in case of discontinuation due to lack or loss of efficacy, patients were counted in the corresponding group regardless of additional cause of intolerance. • The subgroup “Discontinuation due to intolerance” was exclusive."}, "[4]": {"tested_on": "patients with long-standing RA", "test": "Study 4 (open-label extension, adalimumab 40 mg eow + MTX): ACR response and Major Clinical Response", "type": "in vivo, human", "procedure": "The following study was performed to evaluate sustained remission in patients with RA treated with adalimumab and mtx. The study was an open-label extension study, where the last visit of the preceding study was used as the screening visit for Study 4. The study design for Study 4 is described in FIG. 12. The percentage of patients remaining on treatment over time from the first dose of adalimumab remained relatively constant. 846 patients enrolled over time.\nACR response rates and Major Clinical Response (MCR) remained constant through the fourth year of adalimumab treatment. Major Clinical Response (MCR) was defined as patients maintaining an ACR70 response for at least 6 continuous months over a 2-year period. […] At the end of the 4 year time period, 79% of patients had maintained an ACR20, 61% maintained an ACR50 response, and 38% maintained an ACR 70 response.\n(§2) After these trials, patients were eligible to enroll in two separate OLE studies: Study 4 and Study 5. Patients were evaluated for efficacy and safety every 3 months.\n(§3) Efficacy outcomes were evaluated as observed data: DAS28; ACR 20/50/70; Tender Joint Count (TJC); Swollen Joint Count (SJC); and HAQ Disability Index. Baseline demographics and disease characteristics were similar in both Study 4 and Study 5 consistent with moderate to severe RA, as shown below in Table 64: […]"}, "[5]": {"tested_on": "patients with long-standing RA", "settings": "in vivo"}, "[6]": {"tested_on": "patients with RA who had failed prior treatment with infliximab", "test": "Adalimumab after failed infliximab: TJC28 and SJC28", "type": "in vivo, human", "settings": "16 wk", "description": "as §1"}, "[7]": {"tested_on": "patients with long-standing, moderate to severe RA", "test": "Study 5 (open-label extension, adalimumab 40 mg eow + MTX, into 7th year): long-term efficacy (ACR, DAS28, TJC, SJC, HAQ) and withdrawals", "type": "in vivo, human", "settings": "Year 7", "procedure": "as §2, §3"}, "[8]": {"settings": "all reasons for infliximab withdrawal (N=37)"}, "[9]": {"settings": "no response to infliximab (N=13)"}, "[10]": {"settings": "loss of response to infliximab (N=19)"}},
  "data": [
    {"substance": "adalimumab: human anti-TNF mAb (HUMIRA, Abbott Laboratories), described in U.S. Pat. No. 6,090,382 as D2E7", "values": [
      {"measurement": "DAS28 (mean), change from baseline", "setting": "[1]; Study C, 12 weeks, preliminary analysis", "result": "−2.1 (116)"},
      {"measurement": "mean decrease in DAS28 score", "setting": "[1]; week 12", "result": "−2.1"},
      {"measurement": "patients achieving DAS28<2.6", "setting": "[1]; week 12", "result": 10, "unit": "%"},
      {"measurement": "reduction in DAS28 score", "setting": "[1]; week 12", "result": 32, "unit": "%"},
      {"measurement": "mean DAS28", "setting": "[1]; week 12 (baseline 6.5)", "result": 4.4},
      {"measurement": "patients reaching HUI3 MCID of 0.03 change from baseline", "setting": "[2]; week 12 through week 170", "result": "about 60%"},
      {"measurement": "mean HUI3 change from baseline", "setting": "[2]", "result": "0.18 a, b"},
      {"measurement": "mean HUI3 change from baseline", "setting": "[2]; listed as ada", "result": 0.18},
      {"measurement": "mean HUI3 improvement from baseline", "setting": "[2]; week 50 (1 year)", "result": "+0.17"},
      {"measurement": "mean HUI3 improvement from baseline", "setting": "[2]; week 50 (1 year), listed as ada", "result": 0.17},
      {"measurement": "mean HUI3 improvement from baseline", "setting": "[2]; week 170 (3 years)", "result": "+0.19"},
      {"measurement": "mean HUI3 improvement from baseline", "setting": "[2]; week 170 (3 years), listed as ada", "result": 0.19},
      {"measurement": "Change in DAS28, mean change from baseline", "setting": "[3]; [8]", "result": "−1.6"},
      {"measurement": "Change in DAS28, mean change from baseline", "setting": "[3]; infliximab intolerance (N=5)", "result": "−1.4"},
      {"measurement": "Change in DAS28, mean change from baseline", "setting": "[3]; [9]", "result": "−1.0"},
      {"measurement": "maximum change in DAS28", "setting": "[3]; week 16", "result": "−4.7"},
      {"measurement": "patients with a decrease in DAS28 of ≧1.2", "setting": "[3]; week 16, completers (21 of 37)", "result": 57, "unit": "%"},
      {"measurement": "patients maintaining ACR20", "setting": "[4]; end of 4 years", "result": 79, "unit": "%"},
      {"measurement": "patients maintaining ACR50", "setting": "[4]; end of 4 years", "result": 61, "unit": "%"},
      {"measurement": "patients maintaining ACR70", "setting": "[4]; end of 4 years", "result": 38, "unit": "%"},
      {"measurement": "patients achieving Major Clinical Response (ACR70 ≧6 continuous months)", "setting": "[4]; patients with at least 3 years of exposure", "result": 31, "unit": "%"},
      {"measurement": "withdrawals for adverse events", "setting": "[5]", "result": 15, "unit": "%"},
      {"measurement": "Change in SJC (0-28), mean change from baseline", "setting": "[6]; [8]", "result": "−5.2"},
      {"measurement": "Change in TJC (0-28), mean change from baseline", "setting": "[6]; [8]", "result": "−7.4"},
      {"measurement": "Change in SJC (0-28), mean change from baseline", "setting": "[6]; infliximab intolerance (N=5)", "result": "−7.8"},
      {"measurement": "Change in TJC (0-28), mean change from baseline", "setting": "[6]; infliximab intolerance (N=5)", "result": "−10.0"},
      {"measurement": "Change in SJC (0-28), mean change from baseline", "setting": "[6]; [10]", "result": "−6.1"},
      {"measurement": "Change in TJC (0-28), mean change from baseline", "setting": "[6]; [10]", "result": "−8.2"},
      {"measurement": "Change in SJC (0-28), mean change from baseline", "setting": "[6]; [9]", "result": "−2.8"},
      {"measurement": "Change in TJC (0-28), mean change from baseline", "setting": "[6]; [9]", "result": "−5.1"},
      {"measurement": "patients achieving clinical remission (DAS28<2.6)", "setting": "[7]", "result": "Over 40%"}
    ]}
  ]
}
